BindingDB's records for doi:10.7270/Q20Z71R6 (Burnham Center For Chemical Genomics, 2010)
pEC50: −log10 of the molar value.

Biological target: Alkaline phosphatase, placental type (Homo sapiens, UniProt P05187)
Experiment: PLAP enzyme activators, dose response, selectivity assay for human IAP activator project, biochemical, uHTS hits, luminescence (AID 488888)

Chain of Alkaline phosphatase, placental type (P05187 whole entry, looked up): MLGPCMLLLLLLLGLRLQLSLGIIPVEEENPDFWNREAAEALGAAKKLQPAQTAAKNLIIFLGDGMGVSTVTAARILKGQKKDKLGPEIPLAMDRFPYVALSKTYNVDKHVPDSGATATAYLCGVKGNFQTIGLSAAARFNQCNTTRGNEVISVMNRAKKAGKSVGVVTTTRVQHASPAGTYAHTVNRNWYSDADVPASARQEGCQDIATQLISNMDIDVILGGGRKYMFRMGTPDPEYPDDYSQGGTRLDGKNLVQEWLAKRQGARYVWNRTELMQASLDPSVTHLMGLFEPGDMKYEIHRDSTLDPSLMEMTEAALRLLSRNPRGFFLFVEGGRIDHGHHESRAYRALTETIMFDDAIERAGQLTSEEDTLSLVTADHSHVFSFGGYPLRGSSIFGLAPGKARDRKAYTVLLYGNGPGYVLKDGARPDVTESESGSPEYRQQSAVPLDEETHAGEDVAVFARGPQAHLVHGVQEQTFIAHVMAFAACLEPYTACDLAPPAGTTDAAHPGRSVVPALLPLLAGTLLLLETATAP

pEC50 | SMILES
4.45 | O=c1c2ccccc2nc(N=NCc2c(O)ccc3ccccc23)n1O [SMR000145705]
4.84 | O=C(Nn1c(O)csc1=S)C(=O)Nn1c(O)csc1=S [SMR000349781]
5.01 | O=Nc1[nH]c(=O)c(CC(=O)c2ccccc2)nc1NO [SMR000539633]

Continued, compound first:

SMILES | pEC50
Cc1c(C(=O)NN=Cc2ccc(O)cc2O)[nH][nH]c1=O | 4.88
Cn1c(C(C#N)C(=O)c2ccc(Br)s2)nc2ccccc21 (stereo unspecified) [MLS001167394] | 4.21
C=c1[nH]n(-c2nc3ccccc3[nH]2)c(=O)c1=CN(C)C [(4E)-2-(1H-benzimidazol-2-yl)-4-(dimethylaminomethylidene)-5-methyl-pyrazol-3-one] | 4.82
CCc1ccc(CN=Nc2ncnc3nc[nH]c23)cc1 [MLS000419199] | 4.87
COc1cccc(C=NNC(=O)c2[nH][nH]c(=O)c2C)c1O [N'-[(E)-(5-methoxy-6-oxidanylidene-cyclohexa-2,4-dien-1-ylidene)methyl]-4-methyl-5-oxidanylidene-1,4-dihydropyrazole-3-carbohydrazide] | 5.11
CCOC(=O)c1c(C)[nH]c(C(=O)N/N=C/C2C=C([N+](=O)[O-])C=CC2=O)c1C (stereo unspecified) [ethyl 2,4-dimethyl-5-[[[(E)-(3-nitro-6-oxocyclohexa-2,4-dien-1-ylidene)methyl]amino]carbamoyl]-1H-pyrrole-3-carboxylate] | 4.63
Cc1cc(Br)ccc1SCC(=O)OCC(=O)C(C#N)c1nc2ccccc2[nH]1 (stereo unspecified) [2-[(4-bromo-2-methylphenyl)thio]acetic acid [3-cyano-3-(1,3-dihydrobenzimidazol-2-ylidene)-2-oxopropyl] ester] | 4.59
O=C(O)[C@H]1O[C@@H](Oc2c(-c3ccc(O)c(O)c3)oc3cc(O)cc(=O)c-3c2O)[C@H](O)[C@@H](O)[C@@H]1O [quercetin glucuronide] | < 4.00
